Key:
Experiment in all cases: relative viability (nuclei count vs DMSO), 5 days (fraction); higher = more cells survive
[1] = compound: O=C(O)c1ccc2c(c1)nc(Nc1cccc(Cl)c1)c1ccncc12 [Silmitasertib] + Cc1nc(Nc2ncc(C(=O)Nc3c(C)cccc3Cl)s2)cc(N2CCN(CCO)CC2)n1 [Dasatinib] (partner 0.075 µM)
Method in brief: (§1)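 Nuclei were stained with Hoechst during a one-step fixation (final 0.05% Triton X-100, 1% formaldehyde, 1 ug/ml Hoechst) carried out 5 days after dosing, then counted on 4× images. The cells, lung cancer lines in 1536-well plates, had been dosed by pin tool the day after seeding with one drug alone or a fixed anchor-drug dose plus five library-drug doses (not always all listed) in √10 steps. Relative viability is the nuclei count in treated wells divided by that in vehicle wells, and each value is the median of duplicate plates.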

[2] = compound: O=C(O)c1ccc2c(c1)nc(Nc1cccc(Cl)c1)c1ccncc12 [Silmitasertib] + Cc1cc(Nc2cc(N3CCN(C)CC3)nc(Sc3ccc(NC(=O)C4CC4)cc3)n2)n[nH]1 [Tozasertib] (partner 0.1 µM)
Method in brief: as §1

[3] = compound: O=C(O)c1ccc2c(c1)nc(Nc1cccc(Cl)c1)c1ccncc12 [Silmitasertib] + N=C(N)NC(=N)NCCc1ccccc1 [Phenformin] (partner 250 µM)
Method in brief: as §1

Silmitasertib + OSI-027 = compound: O=C(O)c1ccc2c(c1)nc(Nc1cccc(Cl)c1)c1ccncc12 [Silmitasertib] + COc1cccc2cc(-c3nc([C@H]4CC[C@H](C(=O)O)CC4)n4ncnc(N)c34)[nH]c12 [OSI-027] (partner 0.5 µM)
Method in brief: as §1

[4] = compound: O=C(O)c1ccc2c(c1)nc(Nc1cccc(Cl)c1)c1ccncc12 [Silmitasertib] + COc1cc2c(Oc3ccc(NC(=O)C4(C(=O)Nc5ccc(F)cc5)CC4)cc3F)ccnc2cc1OCCCN1CCOCC1 [Foretinib] (partner 0.25 µM)
Method in brief: as §1

[5] = compound: O=C(O)c1ccc2c(c1)nc(Nc1cccc(Cl)c1)c1ccncc12 [Silmitasertib] + CCNC(=O)c1noc(-c2cc(C(C)C)c(O)cc2O)c1-c1ccc(CN2CCOCC2)cc1 [Luminespib] (partner 0.01 µM)
Method in brief: as §1

Silmitasertib = compound: O=C(O)c1ccc2c(c1)nc(Nc1cccc(Cl)c1)c1ccncc12 [Silmitasertib]
Method in brief: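 A plate was accepted only when its control CV was below 25% and the cells had doubled at least once. Viability is defined from nuclear counts as treated wells divided by vehicle wells, with the median taken across plates. That median covers lung cancer cell lines grown in 1536-well plates, dosed by pinning at five √10-spaced library-drug concentrations, and counted in MetaXpress from 4× Hoechst images after 5 days.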

Silmitasertib + AZD7762 = compound: O=C(O)c1ccc2c(c1)nc(Nc1cccc(Cl)c1)c1ccncc12 [Silmitasertib] + NC(=O)Nc1cc(-c2cccc(F)c2)sc1C(=O)N[C@H]1CCCNC1 [AZD7762] (partner 0.2 µM)
Method in brief: as §1

[6] = compound: O=C(O)c1ccc2c(c1)nc(Nc1cccc(Cl)c1)c1ccncc12 [Silmitasertib] + Nc1nc2[nH]cc(CCc3ccc(C(=O)N[C@@H](CCC(=O)O)C(=O)O)cc3)c2c(=O)[nH]1 [Pemetrexed] (partner 0.2 µM)
Method in brief: as §1

[7] = compound: O=C(O)c1ccc2c(c1)nc(Nc1cccc(Cl)c1)c1ccncc12 [Silmitasertib] + CC(=O)c1c(C)c2cnc(Nc3ccc(N4CCNCC4)cn3)nc2n(C2CCCC2)c1=O [Palbociclib] (partner 0.5 µM)
Method in brief: as §1

[8] = compound: O=C(O)c1ccc2c(c1)nc(Nc1cccc(Cl)c1)c1ccncc12 [Silmitasertib] + CC(=O)Nc1cccc(-n2c(=O)n(C3CC3)c(=O)c3c(Nc4ccc(I)cc4F)n(C)c(=O)c(C)c32)c1 [Trametinib] (partner 0.02 µM)
Method in brief: as §1

Silmitasertib + Olaparib = compound: O=C(O)c1ccc2c(c1)nc(Nc1cccc(Cl)c1)c1ccncc12 [Silmitasertib] + O=C(c1cc(Cc2n[nH]c(=O)c3ccccc23)ccc1F)N1CCN(C(=O)C2CC2)CC1 [Olaparib] (partner 8 µM)
Method in brief: as §1

[9] = compound: O=C(O)c1ccc2c(c1)nc(Nc1cccc(Cl)c1)c1ccncc12 [Silmitasertib] + Nc1ncn([C@H]2C[C@H](O)[C@@H](CO)O2)c(=O)n1 [Decitabine] (partner 2 µM)
Method in brief: as §1

[10] = compound: O=C(O)c1ccc2c(c1)nc(Nc1cccc(Cl)c1)c1ccncc12 [Silmitasertib] + O=C(CCCCCCC(=O)Nc1ccccc1)NO [Vorinostat] (partner 1 µM)
Method in brief: as §1

## NCI-H1623
[1]; first compound 0.04 µM
  relative viability: 0.576
[1]; first compound 0.4 µM
  relative viability: 0.456
[1]; first compound 1.265 µM
  relative viability: 0.297
[1]; first compound 4 µM
  relative viability: 0.361
[2]; first compound 0.04 µM
  relative viability: 0.422
[2]; first compound 0.4 µM
  relative viability: 0.392
[2]; first compound 1.265 µM
  relative viability: 0.36
[2]; first compound 4 µM
  relative viability: 0.371
[3]; first compound 0.04 µM
  relative viability: 0.563
[3]; first compound 0.4 µM
  relative viability: 0.498
[3]; first compound 1.265 µM
  relative viability: 0.446
[3]; first compound 4 µM
  relative viability: 0.382
Silmitasertib + OSI-027; first compound 0.04 µM
  relative viability: 0.347
Silmitasertib + OSI-027; first compound 0.4 µM
  relative viability: 0.385
Silmitasertib + OSI-027; first compound 1.265 µM
  relative viability: 0.368
Silmitasertib + OSI-027; first compound 4 µM
  relative viability: 0.357
[4]; first compound 0.04 µM
  relative viability: 0.934
[4]; first compound 0.4 µM
  relative viability: 0.572
[4]; first compound 1.265 µM
  relative viability: 0.49
[4]; first compound 4 µM
  relative viability: 0.536
[5]; first compound 0.04 µM
  relative viability: 0.46
[5]; first compound 0.4 µM
  relative viability: 0.4
[5]; first compound 1.265 µM
  relative viability: 0.355
[5]; first compound 4 µM
  relative viability: 0.343
Silmitasertib; 0.04 µM
  relative viability: 1.03
Silmitasertib; 0.4 µM
  relative viability: 0.715
Silmitasertib; 1.265 µM
  relative viability: 0.689
Silmitasertib; 4 µM
  relative viability: 0.693

## NCI-H1648
Silmitasertib + AZD7762; first compound 0.04 µM
  relative viability: 0.709
Silmitasertib + AZD7762; first compound 0.4 µM
  relative viability: 0.624
Silmitasertib + AZD7762; first compound 1.265 µM
  relative viability: 0.739
Silmitasertib + AZD7762; first compound 4 µM
  relative viability: 0.423
[2]; first compound 0.04 µM
  relative viability: 0.61
[2]; first compound 1.265 µM
  relative viability: 0.283
[2]; first compound 4 µM
  relative viability: 0.363
[6]; first compound 0.04 µM
  relative viability: 0.689
[6]; first compound 0.4 µM
  relative viability: 0.699
[6]; first compound 1.265 µM
  relative viability: 0.863
[6]; first compound 4 µM
  relative viability: 0.679
Silmitasertib + OSI-027; first compound 0.04 µM
  relative viability: 0.255
Silmitasertib + OSI-027; first compound 1.265 µM
  relative viability: 0.267
Silmitasertib + OSI-027; first compound 4 µM
  relative viability: 0.245
[7]; first compound 0.04 µM
  relative viability: 0.256
[7]; first compound 0.4 µM
  relative viability: 0.229
[7]; first compound 1.265 µM
  relative viability: 0.301
[7]; first compound 4 µM
  relative viability: 0.327
[8]; first compound 0.04 µM
  relative viability: 0.634
[8]; first compound 0.4 µM
  relative viability: 0.366
[8]; first compound 1.265 µM
  relative viability: 0.474
[8]; first compound 4 µM
  relative viability: 0.527
Silmitasertib + Olaparib; first compound 0.04 µM
  relative viability: 0.84
Silmitasertib + Olaparib; first compound 0.4 µM
  relative viability: 0.525
Silmitasertib + Olaparib; first compound 1.265 µM
  relative viability: 1.07
Silmitasertib + Olaparib; first compound 4 µM
  relative viability: 0.876
[9]; first compound 0.04 µM
  relative viability: 0.49
[9]; first compound 0.4 µM
  relative viability: 0.55
[9]; first compound 1.265 µM
  relative viability: 0.494
[9]; first compound 4 µM
  relative viability: 0.559
[10]; first compound 0.04 µM
  relative viability: 0.435
[10]; first compound 0.4 µM
  relative viability: 0.517
[10]; first compound 1.265 µM
  relative viability: 0.271
[10]; first compound 4 µM
  relative viability: 0.574
Silmitasertib; 0.04 µM
  relative viability: 1.26
Silmitasertib; 0.4 µM
  relative viability: 0.63
Silmitasertib; 1.265 µM
  relative viability: 0.889
Silmitasertib; 4 µM
  relative viability: 0.684

Source: the supplement of paper PMC10307832
